From PubChem BioAssay AID1996
Values after ≈ are worked out from the molar mass of the structure shown.

Details: buffer; pH 7.4; 200.0 µM

| SMILES | solubility kinetic |
| --- | --- |
| O=C(COC(=O)c1ccc([N+](=O)[O-])o1)NC12CC3CC(CC(C3)C1)C2 | > 52.3 µg/mL |
| Nc1ccc(C(=O)CC(=O)Nc2ccc(Cl)cc2)cc1 | 14.3 µg/mL (≈ 49.5 µM) |
| C=CCn1c(O)c(CN2CCCCC2)c(C)c(C#N)c1=O | > 43.1 µg/mL |
| CCc1noc(C)c1C(=O)Nc1ccc(F)c(F)c1 | 37.7 µg/mL (≈ 142 µM) |
| Cc1[nH]c2ccccc2c1C(=O)CN1CC(C)OC(C)C1 (stereo not given) | 39.4 µg/mL (≈ 138 µM) |
| Cc1c(NC(=O)COC(=O)c2ccc(Cl)nc2)c(=O)n(-c2ccccc2)n1C | > 60.1 µg/mL |
| COc1ccc(O)c(CN2CCCC(C(=O)c3ccccc3SC)C2)c1 (stereo not given) | 17.7 µg/mL (≈ 47.6 µM) |
| Cc1ccc(NC(=O)CN2CCN(Cc3ccccc3)CC2)cc1 | > 48.5 µg/mL |
| COc1ccc(CC(=O)N2CCC(c3ccccc3)C2)cc1 (stereo not given) | 40.8 µg/mL (≈ 138 µM) |
| Cc1ccc(C(=O)C[n+]2ccccc2C)cc1[N+](=O)[O-].[Br-] | 48.3 µg/mL |
| COc1ccc(OC)c(/C=C/c2c([N+](=O)[O-])c(=O)n(C)c(=O)n2C)c1 | 3.4 µg/mL (≈ 9.79 µM) |
| Fc1ccc(-c2csc(N3CCOCC3)n2)cc1 | 2.1 µg/mL (≈ 7.94 µM) |
| Clc1ccc(OCCNCCc2ccccc2)cc1.O=C(O)C(=O)O | > 54.9 µg/mL |
| NS(=O)(=O)c1ccc(NC(=O)Nc2ccc(C(F)(F)F)cc2)cc1 | < 0.3 µg/mL |
| CC(=O)N/C(=N/c1nc(C)cc(C)n1)Nc1ccc(C)cc1C | 3.4 µg/mL (≈ 10.9 µM) |
| COC(=O)[C@H](Cc1ccccc1)NC(=O)N(C)Cc1ccccc1 | > 49 µg/mL |
| COC(=O)C1=C(N)OC2=C(C(=O)CC(C)(C)C2)C1c1ccccc1OC (stereo not given) | > 53.6 µg/mL |
| O=C(NCc1ccccc1)c1c[nH]c2ccccc2c1=O | 39.3 µg/mL (≈ 141 µM) |
| COc1cccc(CNC(=O)Cn2ccc([N+](=O)[O-])n2)c1 | > 43.5 µg/mL |
| CCOc1ccc(N2CC(C(=O)N3CCCc4ccccc43)CC2=O)cc1 (stereo not given) | 47.2 µg/mL (≈ 130 µM) |

| SMILES | solubility kinetic |
| --- | --- |
| COc1ccc2nc(Cl)cc(Cl)c2c1 | 0.9 µg/mL (≈ 3.95 µM) |
| COc1ccc(CC(C)NC2CCCCCC2)cc1 (stereo not given) | 31 µg/mL (≈ 119 µM) |
| O=C(Nc1c(-c2ccccc2)nc2ccccn12)c1ccccc1 | 38.7 µg/mL (≈ 124 µM) |
| O=S(=O)(NCCC1CC1(Cl)Cl)c1ccccc1 (stereo not given) | 39.8 µg/mL (≈ 135 µM) |
| CCCC(=O)Nc1ccc2c(c1)COC2=O | 18.5 µg/mL (≈ 84.4 µM) |
| S=c1[nH]c2ccccc2n1CCOc1ccccc1 | 20.2 µg/mL (≈ 74.7 µM) |
| Cc1ccc(CNC(=O)C2CCC(=O)N2Cc2ccc(F)cc2)cc1 (stereo not given) | 50.2 µg/mL (≈ 147 µM) |
| CC(=O)c1ccc(NC(=S)NCC(c2ccco2)N2CCCC2)cc1 (stereo not given) | 52.5 µg/mL (≈ 147 µM) |
| CCCn1c2c(c(=N)c3c1CCC3)CCC2.I | > 51.6 µg/mL |
| Cc1cccc(NC(=S)NCCc2ccccn2)c1 | > 40.7 µg/mL |
| COCC1CCCN(Cc2nc(-c3ccc4c(c3)OCO4)no2)C1 (stereo not given) | 43.4 µg/mL (≈ 131 µM) |
| O=C(COc1ccc2c(c1)OCO2)NCc1cccs1 | > 43.7 µg/mL |
| CCCNC(=O)NC(=O)c1cnccc1C(F)(F)F | 34.8 µg/mL (≈ 126 µM) |
| C=C(C)CNC(=O)c1ccc2nc(Cc3ccc(OC)cc3)oc2c1 | 40.5 µg/mL (≈ 120 µM) |
| COc1ccc(-c2csc(-c3ccccc3)n2)c(OC)c1 | 3.3 µg/mL (≈ 11.1 µM) |
| CN1CCN(C(=S)c2cn(Cc3ccccc3)c3ccccc23)CC1 | 30.8 µg/mL (≈ 88.1 µM) |
| COc1ccc(Br)c(C(=O)OCC(=O)N2CCc3ccccc32)c1 | 2.3 µg/mL (≈ 5.89 µM) |
| COC(=O)c1cnc(Nc2ccc(Cl)cc2)c([N+](=O)[O-])c1 | < 0.2 µg/mL |
| Cc1sc2nc[nH]c(=O)c2c1-c1ccc(Cl)cc1 | 1.8 µg/mL (≈ 6.5 µM) |
| CC1CN(C(=O)/C=C/c2ccc(SC(F)F)cc2)CC(C)O1 (stereo not given) | 36.3 µg/mL (≈ 111 µM) |

| SMILES | solubility kinetic |
| --- | --- |
| Cc1ccc(-c2ocnc2C(=O)Nc2nc(C)cs2)cc1 | 1.1 µg/mL (≈ 3.67 µM) |
| COc1ccc(S(N)(=O)=O)cc1C(=O)OCC(=O)Nc1sccc1C#N | 15.1 µg/mL (≈ 38.2 µM) |
| Cc1cc2[nH]cnc2c([N+](=O)[O-])c1C | > 28.7 µg/mL |
| CCOC(=O)c1csc(NC(=O)CN2CCCCC2)n1 | > 44.6 µg/mL |
| O=Cc1c(NCCc2ccc(F)cc2)c2ccccc2[nH]c1=O | 34.8 µg/mL (≈ 112 µM) |
| Cc1nc(N2CCN(C)CC2)c2cc(-c3ccccc3)sc2n1 | 1.8 µg/mL (≈ 5.55 µM) |
| O=C(/C=C/c1ccc(Br)o1)Nc1nccs1 | 4.3 µg/mL (≈ 14.4 µM) |
| CCCCN(C(=S)SC)C1CCS(=O)(=O)C1 (stereo not given) | 36.9 µg/mL (≈ 131 µM) |
| Cc1ccc(S(=O)(=O)Nc2ncnc3ccccc23)cc1 | > 44.9 µg/mL |
| COc1ccc(C(=O)NC(CCSC)C(=O)NC2CC2)cc1 (stereo not given) | > 48.4 µg/mL |
| Cc1ccc(S(=O)(=O)N2CCOCC2)cc1NC(=O)COC(=O)C1(C)CC1(Cl)Cl (stereo not given) | > 69.8 µg/mL |
| COc1ccc(CCC(=O)NCCc2ccc(Cl)cc2)cc1 | 3.7 µg/mL (≈ 11.6 µM) |
| Cc1cc(Nc2ccc(C(=O)N3CCCCC3)cc2)c2cccc(C)c2n1 | 4.8 µg/mL (≈ 13.4 µM) |
| CN1CCN(Cc2cc(=O)n3ccsc3n2)CC1 | 35.7 µg/mL (≈ 135 µM) |
| O=C(O)c1ccc(S(=O)(=O)N(Cc2ccccc2)Cc2ccccc2)cc1 | 19.5 µg/mL (≈ 51.1 µM) |
| O=C(Nc1c(O)c2ccccc2[nH]c1=O)c1ccco1 | > 40.5 µg/mL |
| Cc1ccc(NC(=O)Cn2c([N+](=O)[O-])cnc2C)cc1 | > 41.1 µg/mL |
| CN(CCO)c1nc(N)c2c(N)nc3c(c2c1C#N)CC(=O)N3C1CCCC1 | 10.7 µg/mL (≈ 28.1 µM) |
| C[n+]1c(-c2ccccc2)sc2ccccc21.[O-][Cl+3]([O-])([O-])[O-] | > 48.9 µg/mL |
| O=C(NC1CCCc2ccccc21)c1ccccc1OC(F)F (stereo not given) | 15.5 µg/mL (≈ 48.8 µM) |
